Results on nine compounds are retold here after PubChem BioAssay AID2060601 (Molecular Pharmacology Branch, DTP, NCI, 2025).

The subject of this test is 874868-142-R-J2-PDC complex spheroids, growth % test/control. The experiment in a line: Anticancer human tumor 874868-142-R-J2-PDC patient-derived head and neck squamous carcinoma cell line growth inhibition [CLK]. As to conditions: for viability, T/C: stronger effect = lower value. The source says:
A high-throughput screen of multi-cell type tumor spheroids was designed to identify active combinations of […] and targeted small molecules. Complex spheroids include a stromal component modeled by human endothelial cells (HUVEC) and fibroblasts modeled by human mesenchymal stem cells (MSCs). The concentration ranges selected for each drug and investigational agent were based upon clinically achievable concentrations if the clinical Cmax of the agent was known.
Compounds. The drugs and investigational agents: cirtuvivint (SM08502; NSC835563), CC-671 (NSC850746), vemurafenib (NSC761431), tapotoclax (NSC804041), sotorasib (NSC818433), adagrasib (NSC831453), MRTX-1133 (NSC836407), BAY2416964 (NSC825713), copanlisib (NSC816437), inavolisib (NSC800729), abemaciclib (NSC768073), osimertinib (NSC779217), entinostat (NSC756642), eltanexor (KPT-8602, NSC794443), venetoclax (NSC766270), ceralasertib (NSC777638), bortezomib (NSC756655), olaparib (NSC753686), talazoparib (NSC767125), alisertib (NSC759677), peposertib (NSC802822), gemcitabine (NSC613327), 5-fluorouracil (NSC19893), SN-38 (NSC673596), oxaliplatin (NSC266046), paclitaxel (NSC125973), and doxorubicin (NSC123127), were obtained from the National Cancer Institute (NCI) Developmental Therapeutics Program Chemical Repository. The FDA-approved anticancer drug set is available from the Developmental Therapeutics Program at https://dtp.cancer.gov/organization/dscb/obtaining/available plates.htm. […] The stock solutions were prepared in dimethyl sulfoxide (DMSO, Sigma-Aldrich, St. Louis, MO, cat. D2650), except for the platinum complexes which were prepared in saline (Quality Biological, Gaithersburg, MD, cat. 114-055-101), at 800-fold the tested concentration and stored at -70 degrees C prior to their use. All drugs and investigational agents were tested over a range starting from a high concentration at or near the clinical Cmax and decreasing in half-log increments. If the clinical Cmax for an agent had not been determined, the highest concentration tested was 10 microM.
Cell Culture. All cells were maintained in an incubator at 37 degrees C and 5% CO2 with 95% humidity. The PDC lines were cultured according to standard operating procedures established by the NCI PDMR. Briefly, all PDCs were thawed and cultured in Matrigel-coated flasks prepared with a working solution of 1X Ham's F-12 nutrient mix, without supplementation (Invitrogen, Waltham, MA, cat. 11765054), 100 U/mL penicillin-streptomycin (Invitrogen, cat. 15140122), and 2.5% Matrigel (Corning Inc., Corning, NY, cat. 354248) for the first three passages. The 947758-054-R-J2-PDC line was cultured in 6B/Colon 1A media, which includes advanced DMEM/F-12 (Thermo Fisher Scientific, cat. 12634028), 10 mM HEPES (Thermo Fisher Scientific, cat. 15630080), 1X GlutaMAX supplement (Thermo Fisher Scientific, cat. 35050061), 0.1 mg/mL primocin (InvivoGen, cat. ant-pm-2), 10% defined fetal bovine serum, heat inactivated (HyClone Laboratories Inc., cat. SH30070.03HI), 1.25 mM N-Acetyl-L-cysteine (Sigma-Aldrich, cat. A9165), 10 mM nicotinamide (Sigma-Aldrich, cat. N0636), 1X B-27 supplement (Thermo Fisher Scientific, cat. 17504044), 1X N-2 supplement (Thermo Fisher Scientific, cat. 17502048), and 10 microM Y-27632 dihydrochloride (Tocris Bioscience, cat. 1254). The 876862-298-R-J1-PDC was cultured in 6E media, which includes all 6B/Colon 1A media components plus 50% L-WRN conditioned media (ATCC, cat. CRL-3276), 50 ng/mL recombinant human EGF recombinant protein (hEGF; Thermo Fisher Scientific, cat. PHG0311), 10 ng/mL recombinant human fibroblast growth factor 10 (hGFG-10; PeproTech, cat. 100-26), 1 ng/mL recombinant human fibroblast growth factor 2 (hFGF-2; PeproTech, cat. 100-18B), and 1 µM prostaglandin E2 (PGE2; Tocris, cat. 2296). The 227483-062-R1-J1-PDC line was cultured in Panc media, containing all 6E components except hFGF-2, with the addition of 500 nM SB-431542 (Selleckchem, cat. S1067) and 10 nM gastrin (Tocris, cat. 3006). […]

Where “and” joins values, the source holds several entries; their conditions need not be identical. Equal entries are not always repeated. Some results are limits rather than exact numbers.

Usually viability, T/C stands for the result in the treated group divided by that in the control group, in per cent. In general, IC50 refers to the concentration that inhibits the measured activity by half.
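Also: spheroids exposed to the compounds for 7 days.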

Take `CC(=O)O[C@H]1C(=O)[C@@]2(C)[C@H]([C@H](OC(=O)c3ccccc3)[C@]3(O)C[C@H](OC(=O)[C@H](O)[C@@H](NC(=O)c4ccccc4)c4ccccc4)C(C)=C1C3(C)C)[C@]1(OC(C)=O)CO[C@@H]1C[C@@H]2O`: the viability, T/C (compound 0.0316 µM) is 24.8% and 41.2%; the viability, T/C (compound 0.1 µM) was 22.5% and 38.5%; the viability, T/C (compound 0.316 µM) is 21.1% and 41.4%; the viability, T/C (compound 1 µM) was 28.7% and 47.2%; the viability, T/C (compound 3.16 µM) was 23.2% and 42.7%; the viability, T/C (compound 10 µM) was 36.4% and 50.2%. For the setting “curve of compound”, the IC50 was less than 31.6 nM.
Turning to `CC1COCCN1c1cc(C2(S(C)(=N)=O)CC2)nc(-c2ccnc3[nH]ccc23)n1` (stereo unspecified), the viability, T/C is 93.5% and 84.9% (compound 0.0316 µM); 91.8% and 114% (compound 0.1 µM); 82.2% and 76% (compound 0.316 µM); 63.7% and 61.2% (compound 1 µM); 32.2% and 49% (compound 3.16 µM); 28.2% and 38.6% (compound 10 µM). Moreover, the IC50 (curve of compound) was 1640 nM and 2160 nM.
Consider `CNC(=O)c1ccc(Nc2nc(OC3CCCC3)c3c(-c4ccc5nc(C)oc5c4)c[nH]c3n2)c(OC)c1`, for which the viability, T/C is 89.6% [middle of 11 runs] (compound 0.1 µM); 60.3% [middle of 11 runs] (compound 0.316 µM); 50% [middle of 10 runs] (compound 1 µM); 44.5% [middle of 11 runs] (compound 3.16 µM); 42.6% [middle of 11 runs] (compound 10 µM).
As to `COc1ccc([C@@H](O)c2cc(-c3ncnc4cc(N5CCOCC5)ccc34)c(F)cc2Cl)nn1`, the viability, T/C (compound 0.0316 µM) is 93.7% and 87.2%; the viability, T/C (compound 0.1 µM) is 92% and 97.7%; the viability, T/C (compound 0.316 µM) is 84.4% and 85%; the viability, T/C (compound 1 µM) is 67.6% and 79.7%; the viability, T/C (compound 3.16 µM) was 40.5% and 54.6%; the viability, T/C (compound 10 µM) was 24.7% and 26.3%. Besides, the IC50 (curve of compound) was 2120 nM and 3830 nM.
As to `COc1cccc2c1C(=O)c1c(O)c3c(c(O)c1C2=O)CC(O)(C(=O)CO)CC3OC1CC(N)C(O)C(C)O1` (stereo unspecified), the viability, T/C was 74.8% and 74.3% (compound 0.0316 µM); 46.2% and 52.2% (compound 0.1 µM); 18.9% and 27.4% (compound 0.316 µM); 3.91% and 6.75% (compound 1 µM); 0.09% and 0.19% (compound 3.16 µM); 0.19% and 0.2% (compound 10 µM). Also, the IC50 (curve of compound) is 86.8 nM and 114 nM.
`Nc1ccn(C2OC(CO)C(O)C2(F)F)c(=O)n1` (stereo unspecified): the viability, T/C runs as follows: (compound 0.0316 µM) 81.2% and 81.7%; (compound 0.1 µM) 78.9% and 76.2%; (compound 0.316 µM) 49.2% and 54.9%; (compound 1 µM) 31.5% and 44.2%; (compound 3.16 µM) 25.7% and 40.5%; (compound 10 µM) 30.1% and 32.9%. Besides, the IC50 (curve of compound) is 311 nM and 572 nM.
As for `O=C(c1cc(Cc2n[nH]c(=O)c3ccccc23)ccc1F)N1CCN(C(=O)C2CC2)CC1`, the viability, T/C by setting is: (compound 0.0316 µM) 102% and 97.1%; (compound 0.1 µM) 113% and 78.1%; (compound 0.316 µM) 95.2% and 74.9%; (compound 1 µM) 91.5% and 85.1%; (compound 3.16 µM) 86.9% and 76.4%; (compound 10 µM) 83.9% and 71.1%. Besides, the IC50 (curve of compound) is greater than 10000 nM.
In the case of `O=c1[nH]cc(F)c(=O)[nH]1`, the viability, T/C by setting is: (compound 0.0316 µM) 96.6% and 97.4%; (compound 0.1 µM) 99.9% and 74.5%; (compound 0.316 µM) 85.2% and 65.8%; (compound 1 µM) 65.2% and 55.6%; (compound 3.16 µM) 38.4% and 53.1%; (compound 10 µM) 37% and 45.6%. For the same compound, the IC50 (curve of compound) was 1990 nM and 4140 nM.
In the case of `CCCS(=O)(=O)Nc1ccc(F)c(C(=O)c2c[nH]c3ncc(-c4ccc(Cl)cc4)cc23)c1F` + CN1CCN(c2cc(C(=O)Nc3cc4cc(-c5cnn(C)c5)ccc4cn3)ccn2)CC1, the IC50 is, setting by setting: (curve of first compound, second compound 0.0316 µM) greater than 10000 nM; (curve of first compound, second compound 0.1 µM) greater than 10000 nM; (curve of first compound, second compound 0.316 µM) less than 31.6 nM; (curve of first compound, second compound 1 µM) less than 31.6 nM; (curve of first compound, second compound 3.16 µM) less than 31.6 nM; (curve of first compound, second compound 10 µM) less than 31.6 nM. In addition, the viability, T/C (second compound 0.0316 µM, first compound 0.0316 µM) was 99.5%; the viability, T/C (second compound 0.0316 µM, first compound 0.1 µM) is 95.3%; the viability, T/C (second compound 0.0316 µM, first compound 0.316 µM) is 97.4%; the viability, T/C (second compound 0.0316 µM, first compound 1 µM) was 120%; the viability, T/C (second compound 0.0316 µM, first compound 3.16 µM) is 104%; the viability, T/C (second compound 0.0316 µM, first compound 10 µM) was 88.4%. Besides, the viability, T/C is, setting by setting: (second compound 0.1 µM, first compound 0.0316 µM) 71.4%; (second compound 0.1 µM, first compound 0.1 µM) 82.1%; (second compound 0.1 µM, first compound 0.316 µM) 101%; (second compound 0.1 µM, first compound 1 µM) 103%; (second compound 0.1 µM, first compound 3.16 µM) 99.2%; (second compound 0.1 µM, first compound 10 µM) 67.2%. Further, the viability, T/C is, setting by setting: (second compound 0.316 µM, first compound 0.0316 µM) 21.1%; (second compound 0.316 µM, first compound 0.1 µM) 18.1%; (second compound 0.316 µM, first compound 0.316 µM) 16%; (second compound 0.316 µM, first compound 1 µM) 14.8%; (second compound 0.316 µM, first compound 3.16 µM) 20.2%; (second compound 0.316 µM, first compound 10 µM) 17.8%. In addition, the viability, T/C by setting is: (second compound 1 µM, first compound 0.0316 µM) 0.34%; (second compound 1 µM, first compound 0.1 µM) 0.78%; (second compound 1 µM, first compound 0.316 µM) 0.38%; (second compound 1 µM, first compound 1 µM) 0.32%; (second compound 1 µM, first compound 3.16 µM) 0.26%; (second compound 1 µM, first compound 10 µM) 3.04%. Also, the viability, T/C by setting is: (second compound 3.16 µM, first compound 0.0316 µM) 0.22%; (second compound 3.16 µM, first compound 0.1 µM) 3.25%; (second compound 3.16 µM, first compound 0.316 µM) 0.32%; (second compound 3.16 µM, first compound 1 µM) 0.24%; (second compound 3.16 µM, first compound 3.16 µM) 0.3%; (second compound 3.16 µM, first compound 10 µM) 2.5%. The viability, T/C is, setting by setting: (second compound 10 µM, first compound 0.0316 µM) 0.34%; (second compound 10 µM, first compound 0.1 µM) 0.84%; (second compound 10 µM, first compound 0.316 µM) 0.18%; (second compound 10 µM, first compound 1 µM) 0.18%; (second compound 10 µM, first compound 3.16 µM) 0.19%; (second compound 10 µM, first compound 10 µM) 2%.
